Data: patent publication US20240391912A1, “MORPHIC FORMS OF CFT7455 AND METHODS OF MANUFACTURE THEREOF” (C4 THERAPEUTICS, INC., priority 2022, published 2024)

Experiments:
[1] = target: T1, Aiolos (also known as IKZF3) (Homo sapiens, UniProt Q9UKT9); assay: Aiolos degradation in PBMC of patients (mass spectrometry); assay type: in vivo; conditions: Patients 2, 4, 5; oral 50 μg/day or 25 μg/day; 4 hours, day 7, 14, 21 of cycle 1
T1 construct: total peripheral blood mononuclear cell (PBMC) population extracted from whole blood samples of Patient 2, Patient 4, and Patient 5; endogenous in cells; host or cells: peripheral blood mononuclear cells (PBMC) from whole blood of treated patients
T1 sequence (Q9UKT9 whole entry): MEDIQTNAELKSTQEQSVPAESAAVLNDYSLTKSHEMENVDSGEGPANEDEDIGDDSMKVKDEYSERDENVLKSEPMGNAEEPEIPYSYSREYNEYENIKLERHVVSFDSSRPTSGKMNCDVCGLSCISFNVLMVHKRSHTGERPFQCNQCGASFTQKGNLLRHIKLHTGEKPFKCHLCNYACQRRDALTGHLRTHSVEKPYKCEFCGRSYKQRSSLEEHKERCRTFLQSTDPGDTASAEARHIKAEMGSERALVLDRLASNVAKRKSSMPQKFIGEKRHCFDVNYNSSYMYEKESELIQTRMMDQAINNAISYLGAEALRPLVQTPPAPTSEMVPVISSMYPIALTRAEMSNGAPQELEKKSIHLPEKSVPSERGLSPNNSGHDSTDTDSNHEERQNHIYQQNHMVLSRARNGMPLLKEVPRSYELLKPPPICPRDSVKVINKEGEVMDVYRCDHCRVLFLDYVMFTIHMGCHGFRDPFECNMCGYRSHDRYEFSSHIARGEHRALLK
T1 sequence (Q96SW2 whole entry, further chain): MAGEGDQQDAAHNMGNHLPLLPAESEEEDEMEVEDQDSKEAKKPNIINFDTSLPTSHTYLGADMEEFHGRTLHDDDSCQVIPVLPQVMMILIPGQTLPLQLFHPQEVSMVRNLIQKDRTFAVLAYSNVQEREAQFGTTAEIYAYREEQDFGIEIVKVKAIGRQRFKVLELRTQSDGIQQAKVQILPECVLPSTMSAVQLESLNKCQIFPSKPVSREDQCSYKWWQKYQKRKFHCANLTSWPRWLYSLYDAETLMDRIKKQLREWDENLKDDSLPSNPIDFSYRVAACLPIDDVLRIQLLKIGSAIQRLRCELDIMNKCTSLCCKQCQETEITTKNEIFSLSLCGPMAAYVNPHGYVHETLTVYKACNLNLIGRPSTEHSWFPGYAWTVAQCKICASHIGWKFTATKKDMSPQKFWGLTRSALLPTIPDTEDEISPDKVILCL
T1 sequence (Q16531 whole entry partner): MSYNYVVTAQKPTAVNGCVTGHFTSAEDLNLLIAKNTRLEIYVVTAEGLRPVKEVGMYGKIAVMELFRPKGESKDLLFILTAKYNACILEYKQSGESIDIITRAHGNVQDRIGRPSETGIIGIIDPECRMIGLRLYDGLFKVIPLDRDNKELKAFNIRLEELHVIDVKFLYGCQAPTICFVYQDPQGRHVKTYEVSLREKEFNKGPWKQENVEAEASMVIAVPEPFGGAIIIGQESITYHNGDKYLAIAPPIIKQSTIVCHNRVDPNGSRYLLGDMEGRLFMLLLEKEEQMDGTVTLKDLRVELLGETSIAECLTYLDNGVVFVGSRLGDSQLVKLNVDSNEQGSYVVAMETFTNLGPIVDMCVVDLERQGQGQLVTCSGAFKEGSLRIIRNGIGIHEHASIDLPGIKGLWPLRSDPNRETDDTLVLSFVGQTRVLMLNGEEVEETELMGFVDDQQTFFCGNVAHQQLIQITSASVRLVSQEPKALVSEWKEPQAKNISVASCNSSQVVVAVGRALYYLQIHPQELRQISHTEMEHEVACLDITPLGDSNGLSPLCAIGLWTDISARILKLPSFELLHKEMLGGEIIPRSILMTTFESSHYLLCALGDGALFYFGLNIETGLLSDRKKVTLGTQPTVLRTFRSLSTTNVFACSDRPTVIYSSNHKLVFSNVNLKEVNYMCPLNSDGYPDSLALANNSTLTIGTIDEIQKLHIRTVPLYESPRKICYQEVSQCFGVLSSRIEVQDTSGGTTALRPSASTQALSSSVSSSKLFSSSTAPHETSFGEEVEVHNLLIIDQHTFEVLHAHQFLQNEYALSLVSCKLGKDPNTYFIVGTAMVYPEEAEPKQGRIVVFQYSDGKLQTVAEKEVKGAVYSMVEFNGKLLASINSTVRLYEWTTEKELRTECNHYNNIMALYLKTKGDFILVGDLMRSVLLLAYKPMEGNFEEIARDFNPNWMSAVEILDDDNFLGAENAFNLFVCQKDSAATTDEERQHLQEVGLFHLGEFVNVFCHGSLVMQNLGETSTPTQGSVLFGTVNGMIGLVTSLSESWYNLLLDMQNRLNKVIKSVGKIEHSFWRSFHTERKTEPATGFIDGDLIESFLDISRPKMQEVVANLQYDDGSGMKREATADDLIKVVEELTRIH
Method: (§1) Ikaros (also known as IKZF1) and Aiolos (also known as IKZF3) degradation was evaluated using mass spectrometry analysis of total peripheral blood mononuclear cell (PBMC) population extracted from whole blood samples of Patient 2, Patient 4, and Patient 5 taken on the first day of the first cycle (cycle 1, day 1 or C1D1) prior to treatment, 4 hours post Compound 1 treatment, and on day 7, day 14, and day 21 of the treatment cycle.

[2] = target: T2, Ikaros (also known as IKZF1) (Homo sapiens, UniProt Q13422+Q96SW2); assay: Ikaros degradation in PBMC of patients (mass spectrometry); assay type: in vivo; conditions: Patients 2, 4, 5; oral 50 μg/day or 25 μg/day; 4 hours, day 7, 14, 21 of cycle 1
T2 construct: total peripheral blood mononuclear cell (PBMC) population extracted from whole blood samples of Patient 2, Patient 4, and Patient 5; endogenous in cells; host or cells: peripheral blood mononuclear cells (PBMC) from whole blood of treated patients
T2 sequence (Q13422 whole entry): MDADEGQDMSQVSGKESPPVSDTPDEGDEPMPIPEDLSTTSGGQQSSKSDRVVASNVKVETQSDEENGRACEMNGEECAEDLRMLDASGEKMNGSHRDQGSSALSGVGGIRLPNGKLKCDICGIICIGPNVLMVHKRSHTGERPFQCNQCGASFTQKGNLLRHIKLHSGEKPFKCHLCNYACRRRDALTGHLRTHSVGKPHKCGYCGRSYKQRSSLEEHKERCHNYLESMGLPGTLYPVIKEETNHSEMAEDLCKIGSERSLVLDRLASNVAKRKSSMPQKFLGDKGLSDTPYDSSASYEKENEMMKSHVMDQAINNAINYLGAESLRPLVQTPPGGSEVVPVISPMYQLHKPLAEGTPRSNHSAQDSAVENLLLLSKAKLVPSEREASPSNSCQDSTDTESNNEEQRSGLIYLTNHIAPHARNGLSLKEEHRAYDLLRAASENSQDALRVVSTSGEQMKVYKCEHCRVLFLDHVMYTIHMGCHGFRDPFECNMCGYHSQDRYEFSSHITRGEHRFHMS
T2 sequence (Q96SW2 whole entry): as the sequence (Q96SW2 whole entry, further chain) above
T2 sequence (Q16531 whole entry partner): as the sequence (Q16531 whole entry partner) above
Method: as §1

[3] = test system: involved and uninvolved free light chains; assay: Reduction in dFLC after single agent exposure to Compound 1; assay type: in vivo, human
Method: Using samples collecting in Example 24, the difference between involved free light chains and uninvolved free light changes, or dFLC, for Patients 1-3 were calculated using the following formula:
[Abnormal light chainbaseline−normal light chainbaseline]−[Abnormal light chainnadir−normal light chainnadir]/[Abnormal light chainbaseline−normal light chainbaseline]*100 dFLC equation: […]

[4] = test system: OCI-LY10 human DLBCL intracranial xenografts; assay: OCI-LY10 human DLBCL intracranial xenograft study, survival
Method: Agents were tested in the OCI-LY10 human DLBCL intracranial model. […] Rituximab was administered from day 1 via i.v. once per week. Rituximab was dosed at 10 and 30 mg/kg. Individual mouse was euthanized once its body weight loss was over 20%.
The cells growing in an exponential growth phase were harvested and counted for tumor inoculation.
99 CB17 SCID mice were inoculated by intracranial injection with OCI-LY10 cells (1×10^6) for tumor development.
Tumor inoculation: Intraperitoneally injected avertin at dosage of 240 mg/kg to anaesthetize the CB17 SCID mice. Fixed the head of the anaesthetized mice to the brain solid positioner, sterilized the head skin with 70% alcohol. […] Punched a hole about 2 mm right of the anterior fontanel and 1 mm ahead the coronal on the skull with a 25 G needle. Cell suspensions were mixed and certain amount was sucked into the 5 μL injector slowly to avoid bubble formation. The cells were swapped around the needle with alcohol to avoid extracranial tumor genesis. The needle was stuck vertically into the formed hold and 5 μL of cell suspension containing 1×10^6 OCI-LY10 cells was slowly injected for over 1 minute. The injector was then held for another 1 minute and then pulled back to decrease the drainage of the cells suspension. The skin was closed with tweezers and then sewed. Meloxicam was then injected 30 min after the surgery at dosage of 5 mg/kg to relieve the pain. The animals were kept under monitoring until they were awake.
Animals were grouped for treatment on day 7 after tumor inoculation.
At the time of routine monitoring, the animals were daily checked for any effects of tumor growth and treatments on normal behavior such as mobility, food and water consumption (by looking only), body weight gain/loss (body weights were measured twice weekly), eye/hair matting and any other abnormal effect as stated in the protocol. Death and observed clinical signs were recorded on the basis of the numbers of animals within each subset.

[5] = Compound 1, 0.01 mg/kg, p.o., QD

O=C1CC[C@H](N2C(=O)c3cccc4c(Cc5ccc(CN6CCOCC6)cc5)ccc2c34)C(=O)N1 [Compound 1, (S)-3-(6-(4-(morpholinomethyl)benzyl)-2-oxobenzo[cd]indol-1(2H)-yl)piperidine-2,6-dione]
Aiolos (IKZF3) degradation in PBMC compared to baseline [1]: deep degradation
Ikaros (IKZF1) degradation in PBMC compared to baseline [2]: deep degradation
% Change at Nadir in dFLC ([3]; Patient 1, first dose 50 μg oral, no extramedullary disease, ∇ (down)): ∇ 48.2%
% Change at Nadir in dFLC ([3]; Patient 2, first dose 50 μg oral, Multiple Plasmacytomas, ∇ (down)): ∇ 78.1%
% Change at Nadir in dFLC ([3]; Patient 3, first dose 50 μg oral, Lytic Bone Lesions, ∇ (down)): ∇ 41.0%
% Change at Nadir in dFLC ([3]; Patient 4, first dose 50 μg oral, no extramedullary disease, printed with Δ (up)): Δ 56.3%
extension of survival time ([4]; Compound 1 0.01 mg/kg p.o. once per day, p=0.001): 35.7%
Median Survival (Days), ± SEM [4, 5]: 19.00 ± 1.41 days
Survival time extension (%) [4, 5]: 35.7%
